Assay results reported in patent US11180504B2 (ORCHID PHARMA LTD., priority 2016, dated 2021).
Converted amounts (≈) assume the structure as drawn.

What was measured:
[1] = tested on: methicillin-sensitive Staphylococcus aureus; assay: MIC by broth micro-dilution (CLSI), methicillin-sensitive S. aureus; type: cell-based; settings: Staphylococcus aureus, ATCC 29213 / MSSA, MSSA S. aureus ATCC29213; read-out: MIC
[2] = tested on: carbapenem sensitive Escherichia coli; assay: MIC by broth micro-dilution (CLSI), carbapenem sensitive E. coli; type: cell-based; settings: Escherichia coli, ATCC25922, ESBL −ve E. coli ATCC25922; read-out: MIC
[3] = tested on: extended spectrum β lactamase (ESBL) SHV18 producing Klebsiella pneumoniae; assay: MIC by broth micro-dilution (CLSI), ESBL SHV18 producing K. pneumoniae; type: cell-based; settings: Klebsiella pneumoniae, ATCC700603, 22 h, ESBL +ve (SHV-18) K. pneumoniae ATCC700603; read-out: MIC
[4] = tested on: carbapenemase producing K. pneumoniae; assay: MIC by broth micro-dilution (CLSI), carbapenemase producing K. pneumoniae; type: cell-based, Klebsiella pneumoniae; settings: Klebsiella pneumoniae, ATCCBAA1705, KPC-2 K. pneumoniae ATCC BAA-1705; read-out: MIC
[5] = tested on: carbapenem sensitive Pseudomonas aeruginosa; assay: MIC by broth micro-dilution (CLSI), carbapenem sensitive P. aeruginosa; type: cell-based; settings: Pseudomonas aeruginosa, ATCC27853, Meropenem susceptible P. aeruginosa ATCC27853; read-out: MIC

CNCC(=O)N[C@H](C)[C@H]1C(=O)N2C(C(=O)O)=C(S[C@@H]3CN[C@H](C(=O)N4C[C@@H](O)[C@@H](N)C4)C3)[C@H](C)[C@H]12 [Example 218]
MIC [1]: 16 µg/mL (≈ 31.3 µM) | MIC [2]: 1 µg/mL (≈ 1.96 µM) | MIC [3]: 2 µg/mL (≈ 3.92 µM) | MIC [4]: 2 µg/mL (≈ 3.92 µM) | MIC [5]: 2 µg/mL (≈ 3.92 µM)

C[C@@H](NS(C)(=O)=O)[C@H]1C(=O)N2C(C(=O)O)=C(S[C@@H]3CN[C@H](C(=O)N4CCN(C)CC4)C3)[C@H](C)[C@H]12 [Example 23]
MIC [1]: 16 µg/mL (≈ 31 µM) | MIC [2]: 0.5 µg/mL (≈ 0.97 µM) | MIC [3]: 1 µg/mL (≈ 1.94 µM) | MIC [4]: 8 µg/mL (≈ 15.5 µM) | MIC [5]: 32 to 128 µg/mL (≈ 62.1 to 248 µM)

C[C@@H](NC(=O)C(F)F)[C@H]1C(=O)N2C(C(=O)O)=C(S[C@@H]3CN[C@H](C(=O)N4CC[C@H](n5cc(CN)nn5)C4)C3)[C@H](C)[C@H]12 [Example 176]
MIC [1]: 2 µg/mL (≈ 3.43 µM) | MIC [2]: 1 µg/mL (≈ 1.72 µM) | MIC [3]: 4 µg/mL (≈ 6.87 µM) | MIC [4]: 8 µg/mL (≈ 13.7 µM) | MIC [5]: 8 µg/mL (≈ 13.7 µM)

C[C@@H](NC(=O)C(F)F)[C@H]1C(=O)N2C(C(=O)O)=C(S[C@@H]3CN[C@H](C(=O)NCCN(C)C)C3)[C@H](C)[C@H]12 [Example 102]
MIC [1]: 2 µg/mL (≈ 3.97 µM) | MIC [2]: 2 µg/mL (≈ 3.97 µM) | MIC [3]: 8 µg/mL (≈ 15.9 µM) | MIC [4]: 8 µg/mL (≈ 15.9 µM) | MIC [5]: 64 µg/mL (≈ 127 µM)

C[C@H]1C(S[C@@H]2CN[C@H](C(=O)N(CCO)CCO)C2)=C(C(=O)O)N2C(=O)[C@H]([C@@H](C)NC(=O)C(F)F)C12 (stereo partly drawn) [Example 140]
MIC [1]: 2 µg/mL (≈ 3.84 µM) | MIC [2]: 0.5 µg/mL (≈ 0.961 µM) | MIC [3]: 1 µg/mL (≈ 1.92 µM) | MIC [4]: 2 µg/mL (≈ 3.84 µM) | MIC [5]: 32 µg/mL (≈ 61.5 µM)

C[C@@H](NC(=O)C(F)F)[C@H]1C(=O)N2C(C(=O)O)=C(S[C@@H]3CN[C@H](C(=O)N4CC[C@H](N(C)C)C4)C3)[C@H](C)[C@H]12 [Example 107]
MIC [1]: 4 µg/mL (≈ 7.55 µM) | MIC [2]: 1 µg/mL (≈ 1.89 µM) | MIC [3]: 4 µg/mL (≈ 7.55 µM) | MIC [4]: 4 µg/mL (≈ 7.55 µM) | MIC [5]: 16 µg/mL (≈ 30.2 µM)

CNCC(=O)N[C@H](C)[C@H]1C(=O)N2C(C(=O)O)=C(S[C@@H]3CN[C@H](C(=O)N4CC[C@H](F)C4)C3)[C@H](C)[C@H]12 [Example 214]
MIC [1]: 32 µg/mL (≈ 64.3 µM) | MIC [2]: 4 µg/mL (≈ 8.04 µM) | MIC [3]: 32 µg/mL (≈ 64.3 µM) | MIC [4]: 16 µg/mL (≈ 32.2 µM) | MIC [5]: > 128 µg/mL

C[C@@H](NC(=O)OCC(F)(F)F)[C@H]1C(=O)N2C(C(=O)O)=C(S[C@@H]3CN[C@H](CNS(N)(=O)=O)C3)[C@H](C)[C@H]12 [Example 52]
MIC [1]: 1 µg/mL (≈ 1.83 µM) | MIC [2]: 8 µg/mL (≈ 14.7 µM) | MIC [3]: 128 µg/mL (≈ 235 µM) | MIC [4]: > 128 µg/mL | MIC [5]: > 128 µg/mL

C[C@@H](NC(=O)C(F)F)[C@H]1C(=O)N2C(C(=O)O)=C(S[C@@H]3CN[C@H](C(=O)N4CCO[C@H](CN)C4)C3)[C@H](C)[C@H]12 [Example 126]
MIC [1]: 2 µg/mL (≈ 3.76 µM) | MIC [2]: 2 µg/mL (≈ 3.76 µM) | MIC [3]: 8 µg/mL (≈ 15 µM) | MIC [4]: 8 µg/mL (≈ 15 µM) | MIC [5]: 16 µg/mL (≈ 30.1 µM)

CC(C)OC(=O)N[C@H](C)[C@H]1C(=O)N2C(C(=O)O)=C(S[C@@H]3CN[C@H](C(=O)N(C)C)C3)[C@H](C)[C@H]12 [Example 22]
MIC [1]: 2 µg/mL (≈ 4.27 µM) | MIC [2]: 8 µg/mL (≈ 17.1 µM) | MIC [3]: 64 to 128 µg/mL (≈ 137 to 273 µM) | MIC [4]: 32 µg/mL (≈ 68.3 µM) | MIC [5]: > 128 µg/mL

C[C@@H](NC=N)[C@H]1C(=O)N2C(C(=O)O)=C(S[C@@H]3CN[C@H](C(=O)N(C)C)C3)[C@H](C)[C@H]12 [Example 48]
MIC [1]: 16 µg/mL (≈ 39.1 µM) | MIC [2]: 0.5 µg/mL (≈ 1.22 µM) | MIC [3]: 1 µg/mL (≈ 2.44 µM) | MIC [4]: 64 µg/mL (≈ 156 µM) | MIC [5]: 8 µg/mL (≈ 19.5 µM)

C[C@@H](NC(=O)C(F)F)[C@H]1C(=O)N2C(C(=O)O)=C(S[C@@H]3CN[C@H](C(=O)N4C[C@H](O)[C@@H](O)C4)C3)[C@H](C)[C@H]12 [Example 198]
MIC [1]: 2 µg/mL (≈ 3.86 µM) | MIC [2]: 0.25 µg/mL (≈ 0.482 µM) | MIC [3]: 1 µg/mL (≈ 1.93 µM) | MIC [4]: 4 µg/mL (≈ 7.71 µM) | MIC [5]: 32 µg/mL (≈ 61.7 µM)

C[C@H]([C@H]1C(=O)N2C(C(=O)O)=C(SC3CN[C@H](C(=O)N4CC[C@@H](N)C4)C3)[C@H](C)[C@H]12)n1cc(CO)nn1 (stereo partly drawn) [Example 167]
MIC [1]: 2 µg/mL (≈ 3.96 µM) | MIC [2]: 4 µg/mL (≈ 7.91 µM) | MIC [3]: 4 µg/mL (≈ 7.91 µM) | MIC [4]: 4 µg/mL (≈ 7.91 µM) | MIC [5]: 32 µg/mL (≈ 63.3 µM)

C[C@@H](NC(=O)C(F)F)[C@H]1C(=O)N2C(C(=O)O)=C(S[C@@H]3CN[C@H](C(=O)N(C)[C@@H]4CN[C@H](C(=O)N(C)C)C4)C3)[C@H](C)[C@H]12 [Example 172]
MIC [1]: 4 µg/mL (≈ 6.82 µM) | MIC [2]: 1 µg/mL (≈ 1.7 µM) | MIC [3]: 8 µg/mL (≈ 13.6 µM) | MIC [4]: 8 µg/mL (≈ 13.6 µM) | MIC [5]: 64 µg/mL (≈ 109 µM)

C[C@@H](NC(=O)C(F)F)[C@H]1C(=O)N2C(C(=O)O)=C(S[C@@H]3CN[C@H](C(=O)N4C[C@H](N)[C@@H](F)C4)C3)[C@H](C)[C@H]12 [Example 211]
MIC [1]: 2 µg/mL (≈ 3.85 µM) | MIC [2]: 1 µg/mL (≈ 1.92 µM) | MIC [3]: 4 µg/mL (≈ 7.7 µM) | MIC [4]: 4 µg/mL (≈ 7.7 µM) | MIC [5]: 16 µg/mL (≈ 30.8 µM)

C[C@@H](NS(C)(=O)=O)[C@H]1C(=O)N2C(C(=O)O)=C(S[C@@H]3CN[C@H](C(=O)N4CCC(N)C4)C3)[C@H](C)[C@H]12 (stereo in doubt) [Example 362, (4R,5S,6S)-3-((3S,5S)-5-((R)-3-aminopyrrolidine-1-carbonyl)pyrrolidin-3-ylthio)-4-methyl-6-((R)-1-(methylsulfonamido)ethyl)-7-oxo-1-azabicyclo[3.2.0]hept-2-ene-2-carboxylic acid]
MIC [1]: 8 µg/mL (≈ 15.9 µM) | MIC [2]: 0.25 µg/mL (≈ 0.498 µM) | MIC [3]: 4 µg/mL (≈ 7.97 µM) | MIC [4]: 4 µg/mL (≈ 7.97 µM) | MIC [5]: 4 µg/mL (≈ 7.97 µM)

C[C@@H](NC(=O)C(F)(F)CO)[C@H]1C(=O)N2C(C(=O)O)=C(S[C@@H]3CN[C@H](C(=O)N(C)C)C3)[C@H](C)[C@H]12 [Example 143]
MIC [1]: 2 µg/mL (≈ 4.08 µM) | MIC [2]: 1 µg/mL (≈ 2.04 µM) | MIC [3]: 8 µg/mL (≈ 16.3 µM) | MIC [4]: 8 µg/mL (≈ 16.3 µM) | MIC [5]: 32 to 64 µg/mL (≈ 65.2 to 130 µM)

C[C@@H](NC(=O)CN(C)C)[C@H]1C(=O)N2C(C(=O)O)=C(S[C@@H]3CN[C@H](C(=O)N(C)C)C3)[C@H](C)[C@H]12 [Example 100]
MIC [1]: 16 µg/mL (≈ 34.2 µM) | MIC [2]: 1 µg/mL (≈ 2.14 µM) | MIC [3]: 8 µg/mL (≈ 17.1 µM) | MIC [4]: 4 µg/mL (≈ 8.55 µM) | MIC [5]: 32 µg/mL (≈ 68.4 µM)

C[C@@H](NC(=O)[C@H](N)CO)[C@H]1C(=O)N2C(C(=O)O)=C(S[C@@H]3CN[C@H](C(=O)N(C)C)C3)[C@H](C)[C@H]12 [Example 56]
MIC [1]: 64 µg/mL (≈ 136 µM) | MIC [2]: 8 µg/mL (≈ 17 µM) | MIC [3]: 16 µg/mL (≈ 34.1 µM) | MIC [4]: 16 µg/mL (≈ 34.1 µM) | MIC [5]: 64 µg/mL (≈ 136 µM)

C[C@@H](NC(=O)Cn1cnnn1)[C@H]1C(=O)N2C(C(=O)O)=C(S[C@@H]3CN[C@H](C(=O)N4CC[C@@H](N)[C@H](O)C4)C3)[C@H](C)[C@H]12 [Example 553, (4R,5S,6R)-6-((R)-1-(2-(1H-tetrazol-1-yl)acetamido)ethyl)-3-((3S,5S)-5-((3R,4R)-4-amino-3-hydroxypiperidine-1-carbonyl)pyrrolidin-3-ylthio)-4-methyl-7-oxo-1-azabicyclo[3.2.0]hept-2-ene-2-carboxylic acid]
MIC [1]: 2 µg/mL (≈ 3.55 µM) | MIC [2]: 0.25 µg/mL (≈ 0.444 µM) | MIC [4]: 1 µg/mL (≈ 1.77 µM) | MIC [5]: 2 µg/mL (≈ 3.55 µM)

C[C@@H](NC(=O)Cn1nnnc1C(=O)O)[C@H]1C(=O)N2C(C(=O)O)=C(S[C@@H]3CN[C@H](C(=O)N4CC[C@@H](N)C4)C3)[C@H](C)[C@H]12 [Example 403, (4R,5S,6R)-3-((3S,5S)-5-((R)-3-aminopyrrolidine-1-carbonyl)pyrrolidin-3-ylthio)-6-((R)-1-(2-(5-carboxy-1H-tetrazol-1-yl)acetamido)ethyl)-4-methyl-7-oxo-1-azabicyclo[3.2.0]hept-2-ene-2-carboxylic acid]
MIC [1]: 4 µg/mL (≈ 6.92 µM) | MIC [2]: 0.5 µg/mL (≈ 0.866 µM) | MIC [4]: 8 µg/mL (≈ 13.8 µM) | MIC [5]: 16 µg/mL (≈ 27.7 µM)

C[C@@H](NC(=O)Cn1cncn1)[C@H]1C(=O)N2C(C(=O)O)=C(S[C@@H]3CN[C@H](C(=O)N4CCNCC4)C3)[C@H](C)[C@H]12 [Example 314, (4R,5S,6R)-6-((R) - 1-(2-(1H-tetrazol-1-yl)acetamido)ethyl)-4-methyl-7-oxo-3-((3S,5S)-5-(piperazine-1-carbonyl)pyrrolidin-3-ylthio) - 1-azabicyclo[3.2.0]hept-2-ene-2-]
MIC [1]: 4 µg/mL (≈ 7.51 µM) | MIC [2]: 0.25 µg/mL (≈ 0.469 µM) | MIC [4]: 2 µg/mL (≈ 3.75 µM) | MIC [5]: 4 µg/mL (≈ 7.51 µM)

CNCC(=O)N[C@H](C)[C@H]1C(=O)N2C(C(=O)O)=C(S[C@@H]3CN[C@H](CNS(=O)(=O)N4CCNCC4)C3)[C@H](C)[C@H]12 [Example 252]
MIC [1]: 16 µg/mL (≈ 28.6 µM) | MIC [2]: 2 µg/mL (≈ 3.57 µM) | MIC [4]: 4 µg/mL (≈ 7.15 µM) | MIC [5]: 16 µg/mL (≈ 28.6 µM)
